Values after ≈ are worked out from the molar mass of the structure shown. Like-named read-outs stand apart in the source and are kept apart here.
Assays:
[1] = system: Veillonella parvula KYA 10790; test: Antibacterial spectrum, MIC; conditions: KYA10790
[2] = system: B. fragilis 25285; test: Antibacterial spectrum, MIC; assay type: cell-based; conditions: Bacteroides fragilis, 10^6 cells/ml, Gram -, standard strain
Text: (§1) In vitro antibacterial activity (standard strains)
(§2) Organism (10^6 cells/ml)

[3] = system: B. fragilis 0558; test: Antibacterial spectrum, MIC; assay type: cell-based; conditions: Bacteroides fragilis, 10^6 cells/ml, Gram -, standard strain
Text: as §1, §2

[4] = system: S. epidermidis IID 866; test: Antibacterial spectrum, MIC; assay type: cell-based; conditions: Staphylococcus epidermidis, IID866; 10^6 cells/ml; Gram +; standard strain
Text: as §1, §2

[5] = system: Shigella sonnei IID 969; test: Antibacterial spectrum, MIC; assay type: cell-based; conditions: IID969, 10^6 cells/ml, Gram -, standard strain
Text: as §1, §2

[6] = system: Escherichia coli NIHJ JC-2; test: Antibacterial spectrum, MIC; assay type: cell-based; conditions: NIHJJC2, 10^6 cells/ml, Gram -, standard strain
Text: as §1, §2

[7] = system: B. distasonis 8503; test: Antibacterial spectrum, MIC; assay type: cell-based; conditions: Parabacteroides distasonis, 10^6 cells/ml, Gram -, standard strain
Text: as §1, §2

[8] = system: Staphylococcus aureus 209 P; test: Antibacterial spectrum, MIC; assay type: cell-based; conditions: 10^6 cells/ml, Gram +, standard strain
Text: as §1, §2

[9] = system: Acinetobacter anitratus IID 876; test: Antibacterial spectrum, MIC; assay type: cell-based; conditions: Acinetobacter calcoaceticus, IID876; 10^6 cells/ml; Gram -; standard strain
Text: as §1, §2

[10] = system: S. aureus IID 670 (Terajima); test: Antibacterial spectrum, MIC; assay type: cell-based; conditions: Staphylococcus aureus, IID670; 10^6 cells/ml; Gram +; standard strain
Text: as §1, §2

[11] = system: K. pneumoniae 1-220S; test: Antibacterial spectrum, MIC; assay type: cell-based; conditions: Klebsiella pneumoniae, 1220S; 10^6 cells/ml; Gram -; standard strain
Text: as §1, §2

[12] = system: Bacteroides fragilis GM 7000; test: Antibacterial spectrum, MIC; conditions: GM7000
[13] = system: Pst. micros UPI 5464-1; test: Antibacterial spectrum, MIC; conditions: Parvimonas micra, UPI54641
[14] = system: Pseudomonas aeruginosa V-1; test: Antibacterial spectrum, MIC; conditions: V1
[15] = system: P. aeruginosa IFO 12689; test: microbe, parasite or virus in culture; conditions: Pseudomonas aeruginosa, IFO12689
[16] = system: Eubacterium lentum GAI 5242; test: microbe, parasite or virus in culture; conditions: Eggerthella lenta, GAI5242
[17] = system: C. ramosum; test: Antibacterial spectrum, MIC; assay type: cell-based; conditions: Thomasclavelia ramosa
[18] = system: Bacillus subtilis PCI 219; test: Antibacterial spectrum, MIC by method recommended by Japan Society of Chemotherapy; assay type: cell-based; conditions: PCI219, 10^6 cells/ml, Gram +, standard strain
Text: as §1, §2

[19] = system: F. varium KYA 8501; test: Antibacterial spectrum, MIC; assay type: cell-based; conditions: Fusobacterium varium, KYA8501
[20] = system: Peptococcus magnus KY 017; test: microbe, parasite or virus in culture; conditions: Finegoldia magna, KY017
[21] = system: Clostridium perfringens KYA 13123; test: microbe, parasite or virus in culture; conditions: KYA13123
[22] = system: Morganella morganii IID 602; test: Antibacterial spectrum, MIC; assay type: cell-based; conditions: IID602
[23] = system: Peptostreptococcus anaerobius KYA 27337; test: Antibacterial spectrum, MIC; assay type: cell-based
[24] = system: Alcaligenes faecalis 0114002; test: Antibacterial spectrum, MIC; assay type: cell-based; conditions: 10^6 cells/ml, Gram -, standard strain
Text: as §1, §2

[25] = system: Streptococcus pyogenes (S-8); test: Antibacterial spectrum, MIC; assay type: cell-based; conditions: 10^6 cells/ml, Gram +, standard strain
Text: as §1, §2

[26] = system: Klebsiella pneumoniae KY(GN)6445; test: Antibacterial spectrum, MIC; assay type: cell-based; conditions: 10^6 cells/ml, Gram -, standard strain
Text: as §1, §2

[27] = system: Fusobacterium necrophorum S-45; test: Antibacterial spectrum, MIC; assay type: cell-based; conditions: S45, 10^6 cells/ml, Gram -, standard strain
Text: as §1, §2

[28] = system: Salmonella enteritidis IID 604; test: Antibacterial spectrum, MIC; assay type: cell-based; conditions: Salmonella enterica; 10^6 cells/ml; Gram -; standard strain
Text: as §1, §2

[29] = system: E. coli ATCC l0536; test: Antibacterial spectrum, MIC; assay type: cell-based; conditions: Escherichia coli, ATCCL0536
Text: as §1, §2

[30] = system: Enterobacter cloacae IID 977; test: Antibacterial spectrum, MIC; assay type: cell-based; conditions: IID977, 10^6 cells/ml, Gram -, standard strain
Text: as §1, §2

[31] = system: E. faecalis IID 682; test: Antibacterial spectrum, MIC; assay type: cell-based; conditions: Enterococcus faecalis, IID682; 10^6 cells/ml; Gram +; standard strain
Text: as §1, §2

[32] = system: Serratia marcescens IID 618; test: Antibacterial spectrum, MIC; assay type: cell-based; conditions: IID618, 10^6 cells/ml, Gram -, standard strain
Text: as §1, §2

[33] = system: Proteus vulgaris IFO 3167; test: Antibacterial spectrum, MIC; assay type: cell-based; conditions: IFO3167, 10^6 cells/ml, Gram -, standard strain
Text: as §1, §2

[34] = system: P. mirabilis IID 994; test: Antibacterial spectrum, MIC; assay type: cell-based; conditions: Proteus mirabilis, IID994; 10^6 cells/ml; Gram -; standard strain
Text: as §1, §2

[35] = system: S. pneumoniae IID 552; test: Antibacterial spectrum, MIC; assay type: cell-based; conditions: Streptococcus pneumoniae, IID552; 10^6 cells/ml; Gram +; standard strain
Text: as §1, §2

[36] = system: Citrobacter freundii IID 976; test: Antibacterial spectrum, MIC; assay type: cell-based; conditions: IID976, 10^6 cells/ml, Gram -, standard strain
Text: as §1, §2

[37] = system: B. thetaiotaomicron (0661); test: Antibacterial spectrum, MIC; assay type: cell-based; conditions: Bacteroides thetaiotaomicron
[38] = system: S. pyogenes IID 692; test: microbe, parasite or virus in culture; conditions: Streptococcus pyogenes, IID692
[39] = system: Propionibacterium acens 11828; test: Antibacterial spectrum, MIC; assay type: cell-based
[40] = system: Yersinia enterocolitica IID 981; test: microbe, parasite or virus in culture; assay type: cell-based; conditions: IID981
[41] = 10^6 cells/ml, Gram +, standard strain, read-out: MIC

O=C(O)c1cn(C2CC2)c2cc(N3CCNCC3)c(F)cc2c1=O [CPFX, ciprofloxacin, reference compound]
MIC [1]: 0.2 µg/mL (≈ 0.604 µM)
MIC [2]: 6.25 µg/mL (≈ 18.9 µM)
MIC [3]: 3.13 µg/mL (≈ 9.45 µM)
MIC [4]: 0.2 µg/mL (≈ 0.604 µM)
MIC [5]: 0.0063 µg/mL (≈ 0.019 µM)
MIC [6]: ≤ 0.0063 µg/mL
MIC [7]: 6.25 µg/mL (≈ 18.9 µM)
MIC [8]: 0.2 µg/mL (≈ 0.604 µM)
MIC [9]: 0.2 µg/mL (≈ 0.604 µM)
MIC [10]: 0.2 µg/mL (≈ 0.604 µM)
MIC [11]: 0.05 µg/mL (≈ 0.151 µM)
MIC [12]: 6.25 µg/mL (≈ 18.9 µM)
MIC [13]: 0.2 µg/mL (≈ 0.604 µM)
MIC [14]: 0.05 µg/mL (≈ 0.151 µM)

CC1CN(c2c(F)cc3c(=O)c(C(=O)O)cn(C4CC4)c3c2Br)CCN1.Cl (stereo not shown) [Exp. 18, 8-Bromo-1-cyclopropyl-6-fluoro-1,4-dihydro-7-(3-methyl-1-piperazinyl)-4-oxo-3-quinolinecarboxylic acid hydrochloride]
MIC [15]: 3.13 µg/mL
MIC [16]: 0.39 µg/mL
MIC [17, 41]: 6.25 µg/mL
MIC [18]: 0.05 µg/mL
MIC [19]: 3.13 µg/mL
MIC [20]: 0.39 µg/mL
MIC [21]: 0.78 µg/mL
MIC [22]: 0.1 µg/mL
MIC [1]: 0.39 µg/mL
MIC ([23]; KYA27337, 10^6 cells/ml, Gram +, standard strain, read-out: MIC): 1.56 µg/mL
MIC [24]: 0.39 µg/mL
MIC [2]: 0.39 µg/mL
MIC [3]: 0.39 µg/mL
MIC [4]: 0.2 µg/mL
MIC [25]: 0.78 µg/mL
MIC [26]: 0.05 µg/mL
MIC [27]: 0.78 µg/mL
MIC [5]: 0.025 µg/mL
MIC [6]: 0.0125 µg/mL
MIC [28]: 0.05 µg/mL
MIC [29]: 0.025 µg/mL
MIC [30]: 0.1 µg/mL
MIC [31]: 0.78 µg/mL
MIC [32]: 0.1 µg/mL
MIC [7]: 1.56 µg/mL
MIC [33]: 0.025 µg/mL
MIC [34]: 0.025 µg/mL
MIC [35]: 0.78 µg/mL
MIC [8]: 0.1 µg/mL
MIC [9]: 0.05 µg/mL
MIC [10]: 0.2 µg/mL
MIC [11]: 0.1 µg/mL
MIC [36]: 0.05 µg/mL
MIC ([37]; 10^6 cells/ml, Gram -, standard strain, read-out: MIC): 1.56 µg/mL
MIC [12]: 0.78 µg/mL
MIC [13]: 0.39 µg/mL
MIC [38]: 0.78 µg/mL
MIC [14]: 0.39 µg/mL
MIC [39, 41]: 6.25 µg/mL
MIC [40]: 0.1 µg/mL

O=C(O)c1cn(C2CC2)c2c(Br)c(N3CCNCC3)c(F)cc2c1=O [Exp. 17, 8-Bromo-1-cyclopropyl-6-fluoro-1,4-dihydro-4-oxo-7-(1-piperazinyl)-3-quinolinecarboxylic acid]
MIC [15]: 0.78 µg/mL (≈ 1.9 µM)
MIC [16]: 0.39 µg/mL (≈ 0.951 µM)
MIC [17]: 6.25 µg/mL (≈ 15.2 µM)
MIC [18]: 0.05 µg/mL (≈ 0.122 µM)
MIC [19]: 3.13 µg/mL (≈ 7.63 µM)
MIC [20]: 0.39 µg/mL (≈ 0.951 µM)
MIC [21]: 0.78 µg/mL (≈ 1.9 µM)
MIC [22]: 0.05 µg/mL (≈ 0.122 µM)
MIC [1]: 0.39 µg/mL (≈ 0.951 µM)
MIC ([23]; KYA27337): 1.56 µg/mL (≈ 3.8 µM)
MIC [24]: 0.2 µg/mL (≈ 0.488 µM)
MIC [2]: 0.78 µg/mL (≈ 1.9 µM)
MIC [3]: 0.78 µg/mL (≈ 1.9 µM)
MIC [4]: 0.2 µg/mL (≈ 0.488 µM)
MIC [25]: 0.39 µg/mL (≈ 0.951 µM)
MIC [26]: 0.025 µg/mL (≈ 0.0609 µM)
MIC [27]: 0.78 µg/mL (≈ 1.9 µM)
MIC [5]: 0.025 µg/mL (≈ 0.0609 µM)
MIC [6]: 0.0125 µg/mL (≈ 0.0305 µM)
MIC [28]: 0.025 µg/mL (≈ 0.0609 µM)
MIC [29]: 0.025 µg/mL (≈ 0.0609 µM)
MIC [30]: 0.05 µg/mL (≈ 0.122 µM)
MIC [31]: 0.39 µg/mL (≈ 0.951 µM)
MIC [32]: 0.05 µg/mL (≈ 0.122 µM)
MIC [7]: 1.56 µg/mL (≈ 3.8 µM)
MIC [33]: 0.025 µg/mL (≈ 0.0609 µM)
MIC [34]: 0.025 µg/mL (≈ 0.0609 µM)
MIC [35]: 0.78 µg/mL (≈ 1.9 µM)
MIC [8]: 0.1 µg/mL (≈ 0.244 µM)
MIC [9]: 0.1 µg/mL (≈ 0.244 µM)
MIC [10]: 0.2 µg/mL (≈ 0.488 µM)
MIC [11]: 0.05 µg/mL (≈ 0.122 µM)
MIC [36]: 0.025 µg/mL (≈ 0.0609 µM)
MIC [37]: 1.56 µg/mL (≈ 3.8 µM)
MIC [12]: 0.78 µg/mL (≈ 1.9 µM)
MIC [13]: 0.39 µg/mL (≈ 0.951 µM)
MIC [38]: 0.78 µg/mL (≈ 1.9 µM)
MIC [14]: 0.39 µg/mL (≈ 0.951 µM)
MIC [39]: 6.25 µg/mL (≈ 15.2 µM)
MIC [40]: 0.05 µg/mL (≈ 0.122 µM)
